Experimental data: patent US5750530A, “Pharmaceutical diketopiperazine compounds” (Xenova Limited, priority 1994, dated 1998)
Where a name gives a salt, the structure may show the parent alone.

Target: PAI-1 (Homo sapiens, UniProt P05121)
Assay: biochemical
Type: biochemical
Settings: for IC50: PAI chromogenic substrate assay
Summary of the method: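 Compound preincubated with PAI-1 before addition to a tPA system; residual tPA converts plasminogen to plasmin, which cleaves chromogenic substrate S2251. Released p-nitroaniline read at 405 nm; values given as % inhibition at set concentrations or IC50.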

Chain of PAI-1 (P05121 24-402): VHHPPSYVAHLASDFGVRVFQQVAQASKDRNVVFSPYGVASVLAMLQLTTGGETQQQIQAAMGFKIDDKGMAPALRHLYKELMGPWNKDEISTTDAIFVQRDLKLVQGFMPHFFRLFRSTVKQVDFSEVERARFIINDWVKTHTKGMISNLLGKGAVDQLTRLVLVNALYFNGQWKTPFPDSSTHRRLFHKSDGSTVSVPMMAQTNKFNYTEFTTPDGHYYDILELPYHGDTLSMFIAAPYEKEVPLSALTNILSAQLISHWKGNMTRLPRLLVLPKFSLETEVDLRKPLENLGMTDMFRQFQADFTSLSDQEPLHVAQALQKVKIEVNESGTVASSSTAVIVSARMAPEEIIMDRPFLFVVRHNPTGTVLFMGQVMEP

| SMILES | % Inhibition (5 μm) [%] | % Inhibition (20 μm) [%] | IC50 [µM] |
| --- | --- | --- | --- |
| COC(=O)c1ccc(/C=c2\[nH]c(=O)/c(=C/c3ccc(SCCN(C)C)s3)[nH]c2=O)cc1 [Compound 5477.HCl, (3Z,6Z)-3-(5-(2-Dimethylaminoethylthio)-2-thienyl)methylene-6-(4-methoxycarbonylbenzylidene)-2,5-piperazinedione] | 19 | 69 | 15.4 |
| COC(=O)c1ccc(/C=c2\[nH]c(=O)/c(=C/c3ccc(SCCN(C)C)cc3)[nH]c2=O)cc1 [Compound 5478.HCl, (3Z,6Z)-3-(4-(2-Dimethylaminoethylthio)benzylidene)-6-(4-methoxycarbonylbenzylidene)-2,5-piperazinedione] | 3 | 60 | 16.9 |
| COc1ccc(/C=c2\[nH]c(=O)/c(=C/c3ccc(SCCN(C)C)cc3)[nH]c2=O)cc1 [Compound 5479, (3Z,6Z)-3-(4-(2-Dimethylaminoethylthio)benzylidene)-6-(4-methoxybenzylidene)-2,5-piperazinedione] | 66 | 70 | 4.3 |
| COc1ccc(/C=c2\[nH]c(=O)/c(=C/c3ccc(SCCN(C)C)cc3)[nH]c2=O)cc1 [Compound 5479.HCl, (3Z,6Z)-3-(4-(2-Dimethylaminoethylthio)benzylidene)-6-(4-methoxybenzylidene)-2,5-piperazinedione] | 62 | 75 | 4.8 |
| CN(C)CCSc1ccc(/C=c2\[nH]c(=O)/c(=C/c3ccc(Br)cc3)[nH]c2=O)cc1 [Compound 5480, (3Z,6Z)-3-(4-Bromobenzylidene)-6-(4-(2-dimethylaminoethylthio)benzylidene)-2,5-piperazinedione] | 53 | 74 | 5.2 |
| CN(C)CCSc1ccc(/C=c2\[nH]c(=O)/c(=C/c3ccc(Br)cc3)[nH]c2=O)cc1 [Compound 5480.HCl, (3Z,6Z)-3-(4-Bromobenzylidene)-6-(4-(2-dimethylaminoethylthio)benzylidene)-2,5-piperazinedione] | 52 | 76 |  |
| CN(C)CCSc1ccc(/C=c2\[nH]c(=O)/c(=C/c3ccc(OCc4ccccc4)cc3)[nH]c2=O)cc1 [Compound 5481, (3Z,6Z)-3-(4-Benzyloxybenzylidene)-6-(4-(2-dimethylaminoethylthio)benzylidene)-2,5-piperazinedione] | 9 | 56 | 20 |
| CN(C)CCSc1ccc(/C=c2\[nH]c(=O)/c(=C/c3ccc(OCc4ccccc4)cc3)[nH]c2=O)cc1 [Compound 5481.HCl, (3Z,6Z)-3-(4-Benzyloxybenzylidene)-6-(4-(2-dimethylaminoethylthio)benzylidene)-2,5-piperazinedione] | 10 | 55 |  |
| CN(C)CCSc1ccc(/C=c2\[nH]c(=O)/c(=C/c3ccc(OCc4ccccc4)cc3)[nH]c2=O)s1 [Compound 5482, (3Z,6Z)-6-(4-Benzyloxybenzylidene)-3-(5-(2-dimethylaminoethylthio)-2-thienyl)methylene-2,5-piperazinedione] | 12 | 50 | 20 |
| CN(C)CCSc1ccc(/C=c2\[nH]c(=O)/c(=C/c3ccc(OCc4ccccc4)cc3)[nH]c2=O)s1 [Compound 5482.HCl, (3Z,6Z)-6-(4-Benzyloxybenzylidene)-3-(5-(2-dimethylaminoethylthio)-2-thienyl)methylene-2,5-piperazinedione] | 13 | 59 |  |
| CN(C)CCSc1ccc(/C=c2\[nH]c(=O)/c(=C/c3cccc(OCc4ccccc4)c3)[nH]c2=O)cc1 [Compound 5486, (3Z,6Z)-3-(3-Benzyloxybenzylidene)-6-(4-(2-dimethylaminoethylthio)benzylidene)-2,5-piperazinedione] | 13 | 55 | 20 |
| CN(C)CCSc1ccc(/C=c2\[nH]c(=O)/c(=C/c3cccc(OCc4ccccc4)c3)[nH]c2=O)cc1 [Compound 5486.HCl, (3Z,6Z)-3-(3-Benzyloxybenzylidene)-6-(4-(2-dimethylaminoethylthio)benzylidene)-2,5-piperazinedione] | 4 | 49 |  |
| CN(C)CCSc1ccc(/C=c2\[nH]c(=O)/c(=C/c3cccc(OCc4ccccc4)c3)[nH]c2=O)s1 [Compound 5487, (3Z,6Z)-6-(3-Benzyloxybenzylidene)-3-(5-(2-dimethylaminoethylthio)-2-thienyl)methylene-2,5-piperazinedione] | 15 | 60 | 8.6 |
| CN(C)CCSc1ccc(/C=c2\[nH]c(=O)/c(=C/c3cccc(OCc4ccccc4)c3)[nH]c2=O)s1 [Compound 5487.HCl, (3Z,6Z)-6-(3-Benzyloxybenzylidene)-3-(5-(2-dimethylaminoethylthio)-2-thienyl)methylene-2,5-piperazinedione] | 7 | 54 | 7.2 |
| COc1cc(/C=c2\[nH]c(=O)/c(=C/c3ccc(SCCN(C)C)s3)[nH]c2=O)ccc1OCc1ccc([N+](=O)[O-])cc1 [Compound 5488, (3Z,6Z)-3-(5-(2-Dimethylaminoethylthio)-2-thienyl)methylene-6-(3-methoxy-4-(4-nitrobenzyloxy)benzylidene)-2,5-piperazinedione] | 14 | 64 | 8.2 |
| COc1cc(/C=c2\[nH]c(=O)/c(=C/c3ccc(SCCN(C)C)s3)[nH]c2=O)ccc1OCc1ccc([N+](=O)[O-])cc1 [Compound 5488.HCl, (3Z,6Z)-3-(5-(2-Dimethylaminoethylthio)-2-thienyl)methylene-6-(3-methoxy-4-(4-nitrobenzyloxy)benzylidene)-2,5-piperazinedione] | 15 | 60 | 7.6 |
| CN(C)CCSc1ccc(/C=c2\[nH]c(=O)/c(=C/c3ccc(Br)cc3)[nH]c2=O)s1 [Compound 5489, (3Z,6Z)-6-(4-Bromobenzylidene)-3-(5-(2-dimethylaminoethylthio)-2-thienyl)methylene-2,5-piperazinedione] | 6 | 56 | 13.6 |
| CN(C)CCSc1ccc(/C=c2\[nH]c(=O)/c(=C/c3ccc(Br)cc3)[nH]c2=O)s1 [Compound 5489.HCl, (3Z,6Z)-6-(4-Bromobenzylidene)-3-(5-(2-dimethylaminoethylthio)-2-thienyl)methylene-2,5-piperazinedione] | 9 | 55 | 12.6 |
| COc1cc(/C=c2\[nH]c(=O)/c(=C/c3ccc(SCCN(C)C)cc3)[nH]c2=O)ccc1OCc1ccc([N+](=O)[O-])cc1 [Compound 5490, (3Z,6Z)-6-(4-(2-Dimethylaminoethylthio)benzylidene)-3-(3-methoxy-4-(4-nitrobenzyloxy)benzylidene)-2,5-piperazinedione] | 6 | 48 | 20 |
| COc1cc(/C=c2\[nH]c(=O)/c(=C/c3ccc(SCCN(C)C)cc3)[nH]c2=O)ccc1OCc1ccc([N+](=O)[O-])cc1 [Compound 5490.HCl, (3Z,6Z)-6-(4-(2-Dimethylaminoethylthio)benzylidene)-3-(3-methoxy-4-(4-nitrobenzyloxy)benzylidene)-2,5-piperazinedione] | 12 | 66 | 10.8 |
| CN(C)CCSc1ccc(/C=c2\[nH]c(=O)/c(=C/c3ccc4c(c3)OCO4)[nH]c2=O)cc1 [Compound 5491, (3Z,6Z)-6-(4-(2-Dimethylaminoethylthio)benzylidene)-3-(3,4-methylenedioxybenzylidene)-2,5-piperazinedione] | 0 | 65 | 14.2 |
| CN(C)CCSc1ccc(/C=c2\[nH]c(=O)/c(=C/c3ccc4c(c3)OCO4)[nH]c2=O)cc1 [Compound 5491.HCl, (3Z,6Z)-6-(4-(2-Dimethylaminoethylthio)benzylidene)-3-(3,4-methylenedioxybenzylidene)-2,5-piperazinedione] | 0 | 47 | 20 |
| CN(C)CCSc1ccc(/C=c2\[nH]c(=O)/c(=C/c3cn(C)c4ccccc34)[nH]c2=O)cc1 [Compound 5497, (3Z,6Z)-6-(4-(2-Dimethylaminoethylthio)benzylidene)-3-(1-methyl-3-indolyl)methylene-2,5-piperazinedione] | 17 | 72 | 11 |
| CN(C)CCSc1ccc(/C=c2\[nH]c(=O)/c(=C/c3cn(C)c4ccccc34)[nH]c2=O)cc1 [Compound 5497.HCl, (3Z,6Z)-6-(4-(2-Dimethylaminoethylthio)benzylidene)-3-(1-methyl-3-indolyl)methylene-2,5-piperazinedione] | 12 | 59 | 11.5 |
| CN(C)CCSc1ccc(/C=c2\[nH]c(=O)/c(=C/c3c4ccccc4cc4ccccc34)[nH]c2=O)s1 [Compound 5498, (3Z,6Z)-6-(9-Anthrylmethylene)-3-(5-(2-dimethylaminoethylthio)-2-thienyl)methylene-2,5-piperazinedione] | 15 | 52 | 20 |
| CN(C)CCSc1ccc(/C=c2\[nH]c(=O)/c(=C/c3c4ccccc4cc4ccccc34)[nH]c2=O)s1 [Compound 5498.HCl, (3Z,6Z)-6-(9-Anthrylmethylene)-3-(5-(2-dimethylaminoethylthio)-2-thienyl)methylene-2,5-piperazinedione] | 19 | 71 | 11.5 |
| COc1ccc2ccccc2c1/C=c1\[nH]c(=O)/c(=C/c2ccc(SCCN(C)C)s2)[nH]c1=O [Compound 5499, (3Z,6Z)-3-(5-(2-Dimethylaminoethylthio)-2-thienyl)methylene-6-(2-methoxy-1-naphthyl)methylene-2,5-piperazinedione] | 2 | 61 | 11.8 |
